In US11839614B2, “Methods for treating or mitigating cardiotoxicity characterized by inhibition of adenosine A2 signaling and/or adenosine A2 receptor expression” (INTRA-CELLULAR THERAPIES, INC., priority 2018, dated 2023):

Legend:
r-hPDE1C = target: T1, r-hPDE1C (Homo sapiens, UniProt Q14123); assay: Ki for full-length recombinant PDE1C; type: biochemical
T1 construct: Its Kis for full-length recombinant r-hPDE1A, 1B, and 1C are 34, 380, and 37 pM
Source text: (§1) Additional pharmaceuticals used in the following examples are dobutamine (Hospira Inc., Lake Forest, Ill.), esmolol HCl (Mylan, Rockford, Ill.), MRS1754 (Tocris Bioscience, Bristol, UK), and Hespan (6% Hetastarch in 0.9% NaCl B. Braun Medical Inc., Bethlehem, Pa.).

PDE4D = PDE4D (Homo sapiens, UniProt Q08499)
Source text: as §1

[1] = Plasma Compound 1 levels in dogs (LC/MS-MS); type: in vivo; details: dog; for concentration at 10 min / concentration at 30 min / concentration at 120 min: mongrel, plasma; for concentration at 10 min / concentration at 30 min: iv; for concentration at 120 min: po, 10 mg, 10 mg P.O., 120 min post dose
Method: Dogs are studied in the conscious state before and after inducing dilated cardiomyopathy by tachypacing for two weeks at 200 bpm.
The study employs two doses, 0.01 and 0.1 mg/kg, the latter administered 30 minutes after the first.
Intravenous blood is placed in K2EDTA tubes, centrifuged at 2,000 g for 15 min, plasma decanted, and stored frozen. Compound 1 levels are assessed by a rapid, sensitive liquid chromatography-tandem mass spectrometric (LC/MS-MS) method.
The mobile phase consists of a gradient of 60-100% methanol over 4.5 minutes in 5 mM ammonium bicarbonate with 0.2% NH3H2O, pumped at a flow rate of 0.8 mL/min. Analysis time is 4.5 min and both the analyte and internal standard eluted around 2.0 min. Multiple reactions monitoring (MRM) mode is used to detect Compound 1. MS is operated in the positive ion detection mode. […] Calibration curves are linear from 0.02-500 ng/mL in dog plasma sample matrices. The lower limit of quantification (LLOQ) for plasma was 0.02 ng/mL.

[2] = 0.1 mg/kg, plasma Compound 1 concentration, normal dogs, 0.1 mg/kg i.v.
[3] = 0.1 mg/kg, plasma Compound 1 level, failing dogs, IV administration

T1 sequence (Q14123 whole entry): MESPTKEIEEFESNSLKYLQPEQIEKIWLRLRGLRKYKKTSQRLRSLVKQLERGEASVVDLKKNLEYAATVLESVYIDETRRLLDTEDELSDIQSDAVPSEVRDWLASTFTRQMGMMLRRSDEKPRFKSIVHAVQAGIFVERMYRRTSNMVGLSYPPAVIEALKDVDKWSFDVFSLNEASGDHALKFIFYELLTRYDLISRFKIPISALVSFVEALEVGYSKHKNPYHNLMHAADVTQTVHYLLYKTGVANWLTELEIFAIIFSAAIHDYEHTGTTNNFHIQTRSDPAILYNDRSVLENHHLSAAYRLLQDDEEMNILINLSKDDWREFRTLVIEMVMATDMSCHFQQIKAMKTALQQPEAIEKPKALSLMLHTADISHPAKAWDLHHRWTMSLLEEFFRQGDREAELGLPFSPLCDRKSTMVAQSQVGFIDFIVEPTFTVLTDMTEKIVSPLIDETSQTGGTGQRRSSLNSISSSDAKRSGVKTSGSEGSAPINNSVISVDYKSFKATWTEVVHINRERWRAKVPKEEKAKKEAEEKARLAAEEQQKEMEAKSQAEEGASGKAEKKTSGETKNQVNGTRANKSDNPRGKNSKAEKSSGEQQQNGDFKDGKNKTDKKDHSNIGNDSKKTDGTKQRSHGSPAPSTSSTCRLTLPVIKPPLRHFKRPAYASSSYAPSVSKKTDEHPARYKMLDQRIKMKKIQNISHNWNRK
Chain of PDE4D (Q08499 whole entry, species assumed): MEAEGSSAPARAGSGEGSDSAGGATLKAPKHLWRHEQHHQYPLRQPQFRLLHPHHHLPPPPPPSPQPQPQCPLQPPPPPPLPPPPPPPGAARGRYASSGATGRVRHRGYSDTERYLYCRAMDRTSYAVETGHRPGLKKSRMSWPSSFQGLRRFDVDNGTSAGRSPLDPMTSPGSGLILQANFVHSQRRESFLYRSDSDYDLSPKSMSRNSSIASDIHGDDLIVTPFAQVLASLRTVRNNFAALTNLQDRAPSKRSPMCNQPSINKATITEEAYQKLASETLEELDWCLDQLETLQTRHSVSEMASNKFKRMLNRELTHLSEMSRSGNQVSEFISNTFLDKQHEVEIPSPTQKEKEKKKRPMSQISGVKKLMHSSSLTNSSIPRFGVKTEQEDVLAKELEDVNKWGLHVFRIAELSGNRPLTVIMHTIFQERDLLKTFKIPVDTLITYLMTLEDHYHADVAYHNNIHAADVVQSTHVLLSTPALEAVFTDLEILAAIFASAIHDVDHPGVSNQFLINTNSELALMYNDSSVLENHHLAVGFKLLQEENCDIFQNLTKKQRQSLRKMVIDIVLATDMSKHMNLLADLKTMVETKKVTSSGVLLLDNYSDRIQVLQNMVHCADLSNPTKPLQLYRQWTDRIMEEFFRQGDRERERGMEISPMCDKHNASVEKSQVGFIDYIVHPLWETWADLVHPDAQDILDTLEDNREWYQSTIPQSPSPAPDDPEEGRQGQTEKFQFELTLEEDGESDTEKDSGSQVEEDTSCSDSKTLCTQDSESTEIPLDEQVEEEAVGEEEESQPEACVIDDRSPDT

## CN1C(=O)c2c(nn(Cc3ccc(-c4cccc(F)n4)cc3)c2Nc2ccccc2)N2C1=N[C@@H]1CCC[C@@H]12 [Compound 1, (6aR,9aS)-2-(4-(6-fluoropyridin-2-yl)benzyl)-5-methyl-3-(phenyl-amino)-5,6a,7,8,9,9a-hexahydrocyclopenta-[4,5]imidazo[1,2-a]pyrazolo[4,3-e]pyrimidin-4-(2H)-one monophosphate]
r-hPDE1C
  Ki: 0.037 nM
PDE4D
  greater activity toward PDE1 isoforms compared with PDE4D: > 1000 fold
[1]; in vivo
  therapeutic levels (plasma): 100 to 300 ng/mL
[1]; 0.01 mg/kg, plasma Compound 1 concentration, dogs, 0.01 mg/kg i.v.
  concentration at 10 min: 23.6 ± 8.6 ng/mL
[1]; [2]
  concentration at 10 min: 211 ± 60.7 ng/mL
  concentration at 30 min: 94.5 ± 21.2 ng/mL
[1]; [3]
  concentration at 10 min: 441 ± 92.5 ng/mL
  concentration at 30 min: 185 ± 28.9 ng/mL
[1]; plasma Compound 1 concentration, HF dogs
  concentration at 120 min: 178 ± 100 ng/mL
[1]; plasma Compound 1 concentration, normal dogs
  concentration at 120 min: 104 ± 8.5 ng/mL
